The results in this text go back to ChEMBL document CHEMBL1649082, “Trends in kinase selectivity: insights for target class-focused library screening” (J Med Chem, 2011).

What all share (design): scale not given: the % may be the effect or the level left
Experiment [1] is described as follows: Inhibition of CDC2L1 isoform 4 assessed as activity at 1 uM relative to control.
In experiment [2] the target is T1, Inhibitor of nuclear factor kappa-B kinase subunit alpha (Homo sapiens) (UniProt O15111).
T1 sequence (whole entry): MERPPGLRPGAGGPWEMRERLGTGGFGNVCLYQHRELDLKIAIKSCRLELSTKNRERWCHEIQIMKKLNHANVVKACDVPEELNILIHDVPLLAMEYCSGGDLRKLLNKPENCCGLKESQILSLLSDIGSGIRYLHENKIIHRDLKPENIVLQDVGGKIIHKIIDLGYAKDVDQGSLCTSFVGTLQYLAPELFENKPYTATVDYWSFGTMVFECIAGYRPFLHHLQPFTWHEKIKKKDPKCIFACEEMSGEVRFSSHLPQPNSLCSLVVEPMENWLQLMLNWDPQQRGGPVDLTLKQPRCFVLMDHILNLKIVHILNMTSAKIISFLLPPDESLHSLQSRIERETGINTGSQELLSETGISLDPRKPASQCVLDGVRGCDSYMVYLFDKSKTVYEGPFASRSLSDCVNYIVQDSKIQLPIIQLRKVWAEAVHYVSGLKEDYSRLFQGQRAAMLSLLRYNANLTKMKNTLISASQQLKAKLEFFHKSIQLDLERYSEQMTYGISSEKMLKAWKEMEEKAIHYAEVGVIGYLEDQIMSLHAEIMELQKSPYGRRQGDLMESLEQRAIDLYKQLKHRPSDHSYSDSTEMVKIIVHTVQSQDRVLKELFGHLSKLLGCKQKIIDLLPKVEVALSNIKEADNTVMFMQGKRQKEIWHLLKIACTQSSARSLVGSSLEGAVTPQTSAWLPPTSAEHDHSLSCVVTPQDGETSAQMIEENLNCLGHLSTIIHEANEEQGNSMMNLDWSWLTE
The experiment is described as follows: Inhibition of IKKalpha assessed as activity at 1 uM relative to control.

Experiment [3] has as its target Cyclin-dependent kinase 7 (Homo sapiens) (UniProt P50613). The experiment can be described thus: Inhibition of CDK7 assessed as activity at 1 uM relative to control.
A short description of experiment [4]: Inhibition of CDC2L2 isoform 1 assessed as activity at 1 uM relative to control.

Sequence of Cyclin-dependent kinase 7 (Homo sapiens) (P50613 whole entry, canonical isoform): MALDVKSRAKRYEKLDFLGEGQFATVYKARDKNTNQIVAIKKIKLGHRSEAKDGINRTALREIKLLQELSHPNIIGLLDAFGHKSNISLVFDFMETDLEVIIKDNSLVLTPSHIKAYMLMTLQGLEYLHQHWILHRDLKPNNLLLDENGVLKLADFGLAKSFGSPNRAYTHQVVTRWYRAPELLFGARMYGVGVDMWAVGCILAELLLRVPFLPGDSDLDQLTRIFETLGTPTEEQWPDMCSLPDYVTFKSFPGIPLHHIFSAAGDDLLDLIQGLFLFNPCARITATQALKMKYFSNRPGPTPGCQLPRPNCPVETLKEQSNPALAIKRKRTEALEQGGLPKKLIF

In the case of `Cc1cccc(-c2cc3nc(NCCN)c4ncc(C)n4c3s2)c1`, the Activity in experiment [1] was 42%; in experiment [2] it was 15%; in experiment [3] it was 58%; in experiment [4] it was 68%.
Taken in the same sequence, the figures for `Cc1cnc2c(NCCN)nc3cc(-c4cccc(CO)c4)sc3n12` were 2.1%, 4.6%, 0.5% and 6.3%.
